Earlier results on one compound are cited in patent US5741805A, “Controlled release pilocarpine delivery system” (OraMed, Inc., priority 1995, dated 1998).

The series concerns xerostomia. Particulars: 5 mg capsules or tablets three to four times a day.

`CC[C@@H]1C(=O)OC[C@@H]1Cc1cncn1C` [Pilocarpine, pilocarpine]: the salivary function result was “marked improvement” and the side effects result is recorded as “numerous side effects”.
